Where only a bound is given, the exact number is not on record here.

Assay [1] addresses T1, MK2 (Homo sapiens, UniProt P49137). The assay is described as follows: MK2 degradation in human SW1353 cells (MSD, 24 h). Format: cell-based. The arrangement: endogenous in cells; host or cells: SW-1353 (ATCC HTB-94); key to MK2 MSD SW1353 degradation 24 h GMean External Abs DC50: A (<0.001 μM); B (0.001-0.01 μM); C (0.01-0.1 μM); D (>0.1 μM); —: “-”=not tested or inactive; key to MK2 MSD SW 1353 24 h Dmax %: —: “-”=not tested or inactive. Particulars: for Dmax: read-out: MK2 MSD SW 1353 24 h Dmax %; for DC50: read-out: MK2 MSD SW1353 degradation 24 h GMean External Abs DC50. An outline of the steps:
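SW1353 chondrosarcoma cells were treated with up to 10-point serial dilutions (0.1% DMSO) for 24 h at 37 °C, then lysed in RIPA buffer. MK2 levels were quantified by MSD sandwich immunoassay; DC50 came from a 4-parameter logistic fit normalised to DMSO-treated cells (high) and lysis buffer (low).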

The target of assay [2] is T1, MK2. The assay is described as follows: MK2 degradation in human THP-1 monocytic cells (MSD, 24 h). The settings on record: for Dmax: THP-1, THP-1 cells; for DC50: THP-1 cells, read-out: MK2 MSD THP-1 degradation 24 h GMean External Abs DC50. In kind it is cell-based. Set-up: endogenous in cells. An outline of the steps:
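THP-1 cells (200,000/well) treated 24 h at 37 °C with compound dilution series (up to 10 points, 0.1% DMSO). MK2 in RIPA lysates quantified by MSD sandwich immunoassay. DC50 from 4-parameter logistic fit, DMSO-treated cells as high and lysis buffer as low signal.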

T1 sequence (P49137 whole entry): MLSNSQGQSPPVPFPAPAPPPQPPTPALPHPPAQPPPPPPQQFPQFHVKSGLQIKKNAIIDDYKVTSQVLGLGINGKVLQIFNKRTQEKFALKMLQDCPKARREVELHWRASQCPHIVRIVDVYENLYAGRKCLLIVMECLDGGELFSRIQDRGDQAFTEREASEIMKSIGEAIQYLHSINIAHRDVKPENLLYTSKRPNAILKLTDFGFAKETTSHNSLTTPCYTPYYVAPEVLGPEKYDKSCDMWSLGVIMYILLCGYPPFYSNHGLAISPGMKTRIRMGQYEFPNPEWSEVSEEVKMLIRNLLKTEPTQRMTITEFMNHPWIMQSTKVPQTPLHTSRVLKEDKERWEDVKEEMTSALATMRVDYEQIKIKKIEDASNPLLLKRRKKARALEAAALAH

The Dmax is the greatest extent of degradation seen. For orientation: DC50 means the concentration at which degradation of the target reaches its halfway point. Take `O=C1CCN(c2cncc3c(N4CCN(CC5CCN(c6ccc(-c7cc(-c8cc9c([nH]8)C8(CC8)CNC9=O)ccn7)cc6)CC5)CC4)cccc23)C(=O)N1` [Compound I-212]: at MK2 [1], the Dmax was more than 75% and the DC50 fell in the range of 0.01 to 0.1 µM. Moreover, on MK2 [2], the Dmax is more than 75% and the half-maximal degradation concentration (DC50) lay within 0.01 to 0.1 µM.
As for `CC(C)Oc1cc(-c2ccc3c(ccc4sc5c(c43)NC[C@@H](C)NC5=O)n2)cc(N2CCN(CC3CCN(c4ccc5c(c4)n(C)c(=O)n5C4CCC(=O)NC4=O)CC3)CC2)c1` (stereo partly drawn) [Compound I-230], at MK2 [1], the Dmax was more than 75% and the half-maximal degradation concentration (DC50) is less than 0.001 µM. Moreover, at MK2 [2], the Dmax is more than 75% and the DC50 is less than 0.001 µM.
For `C[C@@H]1Cc2oc(-c3ccnc(-c4ccc(N5CCN(CC6CN(c7ccc8c(c7)n(C)c(=O)n8C7CCC(=O)NC7=O)C6)CC5)nc4)c3)cc2C(=O)N1` (stereo partly drawn) [Compound I-417], at MK2 [1], the Dmax is more than 75% and the DC50 was less than 0.001 µM. In addition, at MK2 [2], the Dmax is more than 75% and the DC50 fell in the range of 0.001 to 0.01 µM.
For `C[C@@H]1CNc2c(sc3ccc4nc(-c5ccc(N6CCN(CC7CCN(c8ccc(N9CCC(=O)NC9=O)cc8)CC7)CC6)nc5)ccc4c23)C(=O)N1` [Compound I-438], at MK2 [1], the Dmax is more than 75% and the half-maximal degradation concentration (DC50) lay in the range of 0.001 to 0.01 µM. Moreover, on MK2 [2], the Dmax was more than 75% and the DC50 is 0.001 to 0.01 µM.
Turning to `Cc1cc(-c2cc(-c3cc4c([nH]3)CCNC4=O)ccn2)cc(C)c1N1CCN(CC2CCN(c3ccc4c(c3)n(C)c(=O)n4C3CCC(=O)NC3=O)CC2)CC1` (stereo not drawn) [Compound I-207], at MK2 [1], the “MK2 MSD SW1353 degradation 24 h GMean External Abs DC50” value was “—” and the Dmax was more than 75%. At MK2 [2], the Dmax lay in the range of 50 to 75% and the DC50 fell in the range of 0.001 to 0.01 µM.
For the compound `Cn1c(=O)n(C2CCC(=O)NC2=O)c2ccc(N3CCC(CN4CCN(c5cc(-c6ccc7cc[nH]c7c6)cc(-c6cc(-c7cc8c([nH]7)CCNC8=O)ccn6)c5)CC4)CC3)cc21` (stereo not drawn) [Compound I-206], on MK2 [1], the “MK2 MSD SW 1353 24 h Dmax %” value is listed as “—” and the “MK2 MSD SW1353 degradation 24 h GMean External Abs DC50” value is on record as “—”. Also, at MK2 [2], the Dmax was 50 to 75% and the 50% degradation concentration (DC50) lay in the range of 0.001 to 0.01 µM.
In the case of `C[C@@H]1CNc2c(sc3ccc4nc(-c5ccc(CNC(=O)CCCCCCCc6ccc7c(c6)n(C)c(=O)n7C6CCC(=O)NC6=O)cc5)ccc4c23)C(=O)N1` (stereo partly drawn) [Compound I-87], on MK2 [1], the Dmax is more than 75% and the DC50 was 0.001 to 0.01 µM. Also, at MK2 [2], the Dmax was more than 75% and the DC50 lay in the range of 0.001 to 0.01 µM.
Consider `C[C@@H]1CNc2c(sc3ccc4nc(-c5cccc(N6CCN(C(=O)COCCOCCc7cccc8c7n(C)c(=O)n8C7CCC(=O)N(C)C7=O)CC6)c5)ccc4c23)C(=O)N1` (stereo partly drawn) [Compound I-318], for which, at MK2 [1], the Dmax is less than 50% and the half-maximal degradation concentration (DC50) is more than 0.1 µM. Besides, at MK2 [2], the Dmax was less than 50% and the 50% degradation concentration (DC50) was more than 0.1 µM.
`C[C@@H]1CNc2c(sc3ccc4nc(-c5ccc(N6CCC(CN7CCC(c8cccc9c8n(C)c(=O)n9C8CCC(=O)NC8=O)CC7)CC6)nc5)ccc4c23)C(=O)N1` (stereo partly drawn) [Compound I-99]: the maximal degradation (Dmax) at MK2 [1] and on MK2 [2] was more than 75% each time. Also, the half-maximal degradation concentration (DC50) on MK2 [1] and on MK2 [2] was less than 0.001 µM throughout.

These data come from patent US20230135894A1, “MK2 DEGRADERS AND USES THEREOF” (Kymera Therapeutics, Inc., priority 2021, published 2023).
